{"source": "the SangsterLogP compilation"}
{"experiment": "method code SF-AS, from Dearden, C.; O'Hara, H. (1978). Partition coefficients of some alkyl derivatives of 4-acetamidophenol. Eur J Med Chem, 13(5)415-419."}
{"smiles": "CC(=O)Nc1c(C)cc(O)cc1C", "logP": 0.31}
{"smiles": "CC(=O)Nc1ccc(O)c(C(C)(C)C)c1", "logP": 2.36}
{"smiles": "CC(=O)Nc1cc(C)c(O)cc1C", "logP": 0.6}
{"smiles": "CCc1cc(NC(C)=O)ccc1O", "logP": 1.31}
{"smiles": "CC(=O)Nc1ccc(O)c(C(C)C)c1", "logP": 1.71}
{"smiles": "CC(=O)Nc1ccc(O)c(C)c1", "logP": 0.79}
{"smiles": "CC(=O)Nc1cc(C)c(O)c(C)c1", "logP": 1.11}
{"smiles": "CC(=O)Nc1c(C)cc(O)c(C)c1C", "logP": 0.75}
{"smiles": "CC(=O)Nc1cc(C(C)(C)C)c(O)c(C(C)(C)C)c1", "logP": 3.18}
{"smiles": "CCc1cc(NC(C)=O)cc(CC)c1O", "logP": 1.87}
{"smiles": "CC(=O)Nc1c(C)c(C)c(O)c(C)c1C", "logP": 0.95}
{"smiles": "CC(=O)Nc1ccc(O)cc1C", "logP": 0.17}
{"smiles": "CC(=O)Nc1cc(C)c(O)c(C)c1C", "logP": 0.82}
{"smiles": "CC(=O)Nc1ccc(O)c(C)c1C", "logP": 0.57}
